Measured values published in publication PMC6695674, “Bioluminescence Resonance Energy Transfer Based G Protein-Activation Assay to Probe Duration of Antagonism at the Histamine H3 Receptor” (International Journal of Molecular Sciences, 2019).
Read-outs that look alike come from different tables or passages of the source.

How the values were obtained:
[1] = target: hH3R; conditions: previously reported competition binding studies, cited from earlier work
[2] = target: T1, human histamine H3 receptor (hH3R) (Homo sapiens, UniProt Q9Y5N1); test: Recovery of hH3R responsiveness after washout of pre-bound antagonist (BRET Gβ1γ2 release assay); assay type: cell-based; conditions: for RecT (receptor recovery time, 1/krec): 1 h pre-incubation at 10 × IC50, washout, 10 µM imetit, measured in singlo; for recovery of H3R-induced Gβ1γ2 release to steady-state level upon washout: agonist stimulation after washout of pre-bound antagonist
T1 construct: expressed in transfected cells; host or cells: HEK293T cells, transient transfection (hH3R in pcDEF3)
Protocol: Cells were then stimulated with a saturating concentration of imetit (10 µM) after different time intervals and BRET changes between Venus-Gβ1γ2 and masGRK3ct-Nluc were measured directly and BRET ratio 10 s after agonist stimulation were plotted (Figure 2A,B).
(§1) Agonist-induced BRET between Venus-Gβ1γ2 and masGRK3ct-Nluc was measured on adherent HEK293T cells co-expressing hH3R and Gαi2 in the presence of NanoGlo® (3.2 µL/mL) using a Mithras LB940 multimode microplate reader (Berthold, Germany). Cells were stimulated with histamine in the absence and presence of antagonist in HBSS buffer, and BRET (540–40 nm) and luminescence (480–20 nm) signals were monitored either immediately or after 10 min at 25 °C. […] Next, cells were incubated in HBSS and stimulated with 10 μM imetit after various incubation times. BRET between Venus-G1βγ2 and masGRK3ct-Nluc was immediately measured upon imetit stimulation and BRET ratio after 10 s were plotted. Re-equilibration of pre-bound antagonists was measured upon pre-incubation of the cells with increasing concentrations of antagonist for one hour prior to the addition of increasing concentrations imetit or VUF8328 and BRET ratio was calculated either immediately after agonist addition (0–3 min) or after 10 min re-equilibration.
The receptor recovery time (RecT) was calculated as the reciprocal of the krec.

[3] = target: T1, human histamine H3 receptor (hH3R); test: Re-equilibration of pre-bound antagonist, Schild-plot analysis (BRET Gβ1γ2 release assay); assay type: cell-based; conditions: for type of antagonism after 10 min re-equilibration: VUF8328, 1 h antagonist pre-incubation; for type of antagonism, response measured directly following agonist stimulation: imetit or VUF8328, 1 h antagonist pre-incubation
Protocol: Receptor-induced Venus-Gβ1γ2 recruitment to masGRK3ct-Nluc can be detected after different time intervals following stimulation with agonist, which offers the opportunity to evaluate the re-equilibration time of pre-bound antagonist within the same agonist-induced response. Cells were pre-incubated for 1 h with multiple concentrations of antagonist and subsequently stimulated with increasing concentrations agonist and BRET ratio was calculated either immediately after agonist addition or after 10 min re-equilibration (Figure 3A).
as §1
Equiactive agonist concentrations for Schild analysis were determined from concentration response curves at 10 % max agonist response (vide supra) in the absence and presence of increasing antagonist concentrations. Dose ratios (DR) were calculated by dividing the equiactive agonist concentration in the presence of antagonist by the equiactive agonist concentration in the absence of antagonist.

[4] = system: H3R; set-up: method as in PMID 30249614, PMID 30359639; conditions: intact HEK293T cells; cited from earlier work
[5] = target: T1, human histamine H3 receptor (hH3R); test: BRET between Venus-Gβ1γ2 and masGRK3ct-Nluc to measure hH3R-induced Gαi2 activation in HEK293T cells; assay type: cell-based; conditions: for inhibition of Venus-Gβ1γ2 recruitment to masGRK3ct-Nluc in response to 1 µM histamine: antagonist 10 µM; for agonist efficacy class in the Gβ1γ2 release assay: HEK293T cells co-expressing hH3R and Gαi2; for intrinsic activity (α) / pEC50 ± S.E.M.: hH3R-mediated Gαi2 activation in HEK293T cells; for pEC50 ± S.E.M.: BRET ratio after 10 min, mean ± S.E.M. of three experiments
Protocol: Cells were transiently transfected in a 10 cm^2 dish with plasmids coding for Venus155-239-Gβ1 (0.4 µg), Venus1-155-Gγ2 (0.4 µg), masGRK3ct-Nluc (0.4 µg), hH3R (0.4 µg), Gαi2-protein (1.2 µg), and empty pcDEF3 (2.2 µg) using 20 µg 25 kDa linear polyethylenimine (Polysciences Inc, Warrington, PA, USA), as previously described. The next day, 50,000 cells/well were transferred to a poly-L-lysine coated black 96 well plates (Greiner Bio-one GmbH, Frickenhausen, Germany) and grown for an additional 24 h.
as §1
Ligand-induced BRET changes were calculated by dividing emission at 540–40 nm (Venus) by emission at 480–20 nm (Nluc) and baseline-corrected by subtracting BRET of vehicle. […] Agonist and antagonist concentration-response curves were fitted to three-parameter response models to obtain EC50 and IC50 values, respectively. […] For receptor recovery the vehicle corrected BRET ratio at 10 s after agonist addition was plotted over time.

[6] = system: hH3R; set-up: method as in PMID 30249614; conditions: CAMYEL biosensor; cited from earlier work
[7] = 1 h antagonist pre-incubation, agonist VUF8328, BRET after 10 min re-equilibration
[8] = 1 h antagonist pre-incubation, agonist VUF8328, BRET measured immediately
[9] = 1 h antagonist pre-incubation, agonist imetit, BRET measured immediately

T1 sequence (Q9Y5N1 whole entry): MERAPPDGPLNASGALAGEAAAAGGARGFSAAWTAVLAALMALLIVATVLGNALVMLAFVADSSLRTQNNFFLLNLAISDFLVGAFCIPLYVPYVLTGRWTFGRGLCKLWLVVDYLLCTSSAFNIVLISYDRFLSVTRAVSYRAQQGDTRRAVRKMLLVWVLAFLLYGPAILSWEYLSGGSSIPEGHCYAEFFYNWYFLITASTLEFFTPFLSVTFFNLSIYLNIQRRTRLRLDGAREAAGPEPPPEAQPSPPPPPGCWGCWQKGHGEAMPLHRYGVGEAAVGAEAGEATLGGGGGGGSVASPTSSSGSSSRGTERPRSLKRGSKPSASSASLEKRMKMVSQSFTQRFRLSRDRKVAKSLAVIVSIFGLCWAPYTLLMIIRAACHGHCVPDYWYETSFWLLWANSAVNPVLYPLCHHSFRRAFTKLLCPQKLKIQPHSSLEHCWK

In the case of `CCNC(=O)[C@H]1C[C@@](F)(c2ccc(CN3CCCC3)c(F)c2)C1` [PF03654746], the pKi ([1]; antagonists) is listed as 9.3, the “RecT (receptor recovery time, 1/krec)” value [2] is listed as 3.6 ± 0.3 min and the “hH3R recovery slower than upon washout of iodophenpropit and pitolisant” value ([2]; after antagonist washout) is listed as 2 to 2.5 fold. The “recovery of H3R-induced Gβ1γ2 release to steady-state level upon washout” value [2] was under 20 min, the “Schild slope, VUF8328 (10 min)” value [3, 7] was 1.2 ± 0.1 and the “pA2, VUF8328 (10 min)” value [3, 7] was 9.6 ± 0.2. For the same compound, the “Schild slope, VUF8328 (0 min)” value [3, 8] was 1.5 ± 0.2, the “pA2, VUF8328 (0 min)” value [3, 8] was 9.3 ± 0.2 and the “Schild slope, Imetit (0 min)” value [3, 9] was 1.0 ± 0.1. The “pA2, Imetit (0 min)” value [3, 9] was 9.8 ± 0.1, the “type of antagonism after 10 min re-equilibration” value [3] was “near-surmountable” and the “type of antagonism, response measured directly following agonist stimulation” value [3] was “insurmountable antagonists”. The residence time [4] was “approximately 15 min” and the pKB ([5]; calculated from IC50 values, inhibition of histamine-induced (1 µM) BRET ratio, 10 min, mean ± S.E.M.) was 9.9 ± 0.1.
In the case of `CNC(=NCCSCc1csc(N=C(N)N)n1)NC#N` [tiotidine], the “inhibition of Venus-Gβ1γ2 recruitment to masGRK3ct-Nluc in response to 1 µM histamine” value (shortened to “inhibition of Venus-Gβ1γ2 recruitment”) [5] is reported as “ineffective”.
In the case of `N=C(N)SCCc1cnc[nH]1` [Imetit], the pKi ([1]; agonists) is given as 8.6, the EC50 [5] is given as 0.251 nM and the “agonist efficacy class in the Gβ1γ2 release assay” value (from here on “agonist efficacy class”) [5] is given as “full agonist”. For the same compound, the “intrinsic activity (α)” value ([5]; mean ± S.E.M.) was 1.1 ± 0.1.
For `N=C(N)SCCCc1cnc[nH]1` [VUF8328], the pKi ([1]; agonists) is given as 8.5, the “agonist efficacy class” value [5] is given as “partial agonist” and the “pEC50 ± S.E.M.” value [5] is given as 9.4 ± 0.1. For the same compound, the “intrinsic activity (α)” value ([5]; mean ± S.E.M.) was 0.7 ± 0.2.
For `COc1ccc(CN(CCN(C)C)c2ccccn2)cc1` [mepyramine], the “inhibition of Venus-Gβ1γ2 recruitment” value [5] was “ineffective”.
In the case of `c1ncc(CC2CCNCC2)[nH]1` [immepip], the pKi ([1]; agonists) is listed as 8.8, the “agonist efficacy class” value [5] is listed as “full agonist” and the “pEC50 ± S.E.M.” value [5] is listed as 9.9 ± 0.1. For the same compound, the “intrinsic activity (α)” value ([5]; mean ± S.E.M.) was 1.0 ± 0.1.
In the case of `CN1CCN(C(=O)c2cc3cc(Cl)ccc3[nH]2)CC1` [JNJ7777120], the “inhibition of Venus-Gβ1γ2 recruitment” value [5] is reported as “ineffective”.
In the case of `Clc1ccc(CCCOCCCN2CCCCC2)cc1` [Pitolisant], the “RecT (receptor recovery time, 1/krec)” value [2] is listed as 1.7 ± 0.3 min, the “recovery of H3R-induced Gβ1γ2 release to steady-state level upon washout” value [2] is listed as under 20 min and the “time to full recovery of hH3R responsiveness following washout” value [6] is listed as over 30 min. For the same compound, the “Schild slope, VUF8328 (10 min)” value [3, 7] was 1.1 ± 0.1, the “Schild slope, VUF8328 (0 min)” value [3, 8] was 1.4 ± 0.0 and the “Schild slope, Imetit (0 min)” value [3, 9] was 1.1 ± 0.0. The “type of antagonism after 10 min re-equilibration” value [3] was “surmountable”, the “type of antagonism, response measured directly following agonist stimulation” value [3] was “insurmountable antagonists” and the “inhibition of Venus-Gβ1γ2 recruitment” value [5] was “fully inhibited”.
In the case of `NCCc1c[nH]cn1` [Histamine, histamine], the pKi ([1]; agonists) is listed as 6.7.
